According to publication PMC6001238, “Iterative Chemical Engineering of Vancomycin Leads to Novel Vancomycin Analogs With a High in Vitro Therapeutic Index” (Frontiers in Microbiology, 2018):
In brackets after ≈: the same amount, converted by molar mass.

How the values were obtained:
VRE39 = assay: MIC in the absence and presence of 10 µM vancomycin (vanA induction); type: cell-based, Enterococcus faecalis
Method: The minimum inhibitory concentration (MIC) was determined using the broth microdilution method according to the antimicrobial susceptibility testing standards of the clinical and laboratory standards institute ([Clinical and Laboratory Standards Institute [CLSI], 2012]). Ultrapure water and non-inoculated broth were used as controls. In one case, a final concentration of 10 μM vancomycin was included with the vancomycin analog or control antibiotic.

B. subtilis PSB3 = assay: MIC, broth microdilution, B. subtilis PSB3; type: cell-based, Bacillus subtilis
How it was run: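 Serial dilutions in broth, set up per CLSI guidance, gave the MIC. Where noted, test analogues or comparator antibiotics were combined with vancomycin at 10 μM final. Controls: ultrapure water, broth without inoculum.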

E. coli XL-1 blue MRF' = assay: MIC, broth microdilution, E. coli XL-1 blue MRF'; type: cell-based, Escherichia coli
How it was run: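 Broth microdilution per CLSI; controls = ultrapure water, non-inoculated broth. One set: + vancomycin 10 μM final alongside test analogue/control drug.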

[1] = system: lipid II with terminal D-Ala-D-Lac; parameters: method as in Arthur and Courvalin, 1993; Walsh et al., 1996; settings: D-Ala-D-Lac versus D-Ala-D-Ala termini ref Arthur and Courvalin, 1993; Walsh et al., 1996; cited from earlier work
MRSA = assay: Time-kill curves, MRSA at 4x MIC; type: cell-based, Staphylococcus aureus; settings: 1-24 h
Method: Time-kill curves were determined based on the CLSI guidelines ([Clinical and Laboratory Standards Institute [CLSI], 1999]). Single colonies grown overnight at 37°C were resuspended in Ca^2+-adjusted (0.05 mg/mL) Mueller Hinton broth up to an optical density (625 nm) of 0.08–00.10 (corresponding to the 0.5 McFarland standard), followed by a 10-fold dilution in the same broth. Subsequently, 0.2 mL inoculum was added to 1.7 mL Ca^2+-adjusted (0.05 mg/mL) Mueller Hinton broth, followed by addition of the antibacterial compound (0.1 mL). The final concentration of the antibacterial compound corresponded to the 4x MIC value for that compound. For the antibiotic-free control, the compound was replaced by an equal volume of ultrapure water. The final inoculum concentration was approximately 10^6 CFU/mL. The cultures were continuously shaken at 37°C. After 1, 2, 4, 6, 8, and 24 h, a 0.1 mL aliquot was removed, serially diluted in cold 0.9% w/v NaCl and plated on BHI (VRE) and LB (MRSA) agar plates. Plates were incubated overnight at 37°C and colonies were counted.

VRE 39 = assay: Resistance development, serial exposure to subinhibitory doses, 20 cycles; type: cell-based, Enterococcus faecalis; settings: subinhibitory doses (MIC/2)
Method: To monitor resistance development upon exposure to subinhibitory doses, the initial MIC of Vanc-39, Vanc-42 and daptomycin was determined against VRE 39. A new MIC assay was prepared using 1,000-fold diluted cells grown at MIC/2 (occasionally MIC/4 if growth in MIC/2 was too limited). This was repeated for 20 cycles and changes in MIC were monitored.

SMILES | MIC (VRE39; VRE39, 0 µM vancomycin) [µM] | MIC (VRE39; VRE39, 10 μM vancomycin added) [µM] | time-kill curve character (MRSA) | change in MIC upon serial exposure (VRE 39) | other results
CNC(CC(C)C)C(=O)NC1C(=O)NC(CC(N)=O)C(=O)NC2C(=O)NC3C(=O)NC(C(=O)NC(C(=O)NCCCNC(=O)c4ccc5cc(NS(=O)(=O)c6ccc(C(C)C)cc6)ccc5c4)c4cc(O)cc(O)c4-c4cc3ccc4O)C(O)c3ccc(c(Cl)c3)Oc3cc2cc(c3OC2OC(CO)C(O)C(O)C2OC2CC(C)(N)C(O)C(C)O2)Oc2ccc(cc2Cl)C1O (stereo not drawn) [Vanc-66] | 3.13 | 3.13 |  |  | 
CN[C@H](CC(C)C)C(=O)N[C@H]1C(=O)N[C@@H](CC(N)=O)C(=O)N[C@H]2C(=O)N[C@H]3C(=O)N[C@H](C(=O)N[C@H](C(=O)O)c4cc(O)cc(O)c4-c4cc3ccc4O)[C@H](O)c3ccc(c(Cl)c3)Oc3cc2cc(c3O[C@@H]2O[C@H](CO)[C@@H](O)[C@H](O)[C@H]2O[C@H]2C[C@](C)(N)[C@H](O)[C@H](C)O2)Oc2ccc(cc2Cl)[C@H]1O [Vancomycin] |  |  |  |  | MIC (B. subtilis PSB3; Bacillus subtilis): 0.39 µM (≈ 0.565 µg/mL); MICvanc/MICi (B. subtilis PSB3; ratio of MIC of vancomycin and MIC of analogue): 1; MICvanc/MICi (E. coli XL-1 blue MRF'; E. coli XL-1 blue MRF', ratio of MIC of vancomycin and MIC of analogue): 1; MIC (E. coli XL-1 blue MRF'; Escherichia coli): 100 µM (≈ 145 µg/mL); MIC (VRE39; Enterococcus faecalis, VRE39, 0 µM vancomycin): 800 µM; MIC (VRE39; Enterococcus faecalis, VRE39, 10 μM vancomycin added): 400 µM; reduced affinity for vancomycin [1]: 1000 fold
CN(C)c1cc(NC(=O)CNC(C)(C)C)c(O)c2c1C[C@H]1C[C@H]3[C@H](N(C)C)C(O)=C(C(N)=O)C(=O)[C@@]3(O)C(O)=C1C2=O [Tigecycline, reference compound] |  |  | typical bacteriostatic time-kill curve |  | 
CN[C@H](CC(C)C)C(=O)N[C@H]1C(=O)N[C@@H](CC(N)=O)C(=O)N[C@H]2C(=O)N[C@H]3C(=O)N[C@H](C(=O)N[C@H](C(=O)NCC(=O)Nc4ccc5c(c4)Cc4ccccc4-5)c4cc(O)cc(O)c4-c4cc3ccc4O)[C@H](O)c3ccc(c(Cl)c3)Oc3cc2cc(c3O[C@@H]2O[C@H](CO)[C@@H](O)[C@H](O)[C@H]2O[C@H]2C[C@](C)(N)[C@H](O)[C@H](C)O2)Oc2ccc(cc2Cl)[C@H]1O [Vanc-42] | 1.56 | 1.56 |  | oscillated between the original value and a twofold increase | 
CCCCCCCCCC(=O)N[C@@H](Cc1c[nH]c2ccccc12)C(=O)N[C@H](CC(N)=O)C(=O)N[C@@H](CC(=O)O)C(=O)N[C@@H]1C(=O)NCC(=O)N[C@@H](CCCN)C(=O)N[C@@H](CC(=O)O)C(=O)N[C@H](C)C(=O)N[C@@H](CC(=O)O)C(=O)NCC(=O)N[C@H](CO)C(=O)N[C@@H]([C@H](C)CC(=O)O)C(=O)N[C@@H](CC(=O)c2ccccc2N)C(=O)O[C@@H]1C [Daptomycin, reference compound] |  |  | complete elimination after 24 h | eightfold higher concentration | 
CNC(CC(C)C)C(=O)NC1C(=O)NC(CC(N)=O)C(=O)NC2C(=O)NC3C(=O)NC(C(=O)NC(C(=O)NCCCNC(=O)c4cc5ccccc5[nH]4)c4cc(O)cc(O)c4-c4cc3ccc4O)C(O)c3ccc(c(Cl)c3)Oc3cc2cc(c3OC2OC(CO)C(O)C(O)C2OC2CC(C)(N)C(O)C(C)O2)Oc2ccc(cc2Cl)C1O (stereo not drawn) [Vanc-24] | 3.13 | 6.25 | quickest onset of killing |  | 
CCCCc1ccc(NC(=O)CNC(=O)[C@H]2NC(=O)[C@H]3NC(=O)[C@H](NC(=O)[C@@H]4NC(=O)[C@H](CC(N)=O)NC(=O)[C@H](NC(=O)[C@@H](CC(C)C)NC)[C@H](O)c5ccc(c(Cl)c5)Oc5cc4cc(c5O[C@@H]4O[C@H](CO)[C@@H](O)[C@H](O)[C@H]4O[C@H]4C[C@](C)(N)[C@H](O)[C@H](C)O4)Oc4ccc(cc4Cl)[C@H]3O)c3ccc(O)c(c3)-c3c(O)cc(O)cc32)cc1 [Vanc-39] | 1.56 | 6.25 |  | oscillated between the original value and a twofold increase | 
